What was measured:
Solubility = format: physicochemical
[1] = Stability in different conditions, content by HPLC; format: physicochemical; conditions: for content after 6 Months Under Light / content after 6 Months at 60° C. / content after 6 Months at Room Temperature: HPLC, initial purity 99.6%
in vivo = conditions: rat, po, 1 mmol/kg
From the text: Male Sprague-Dawley (SD) rats (weight: about 250 g, experimental animal certification of fitness: 0006473) were purchased from Shanghai Slaccas experimental animals limited liability company (certification number: SCXK (Hu) 2003-0003). The relevant qualifications and state of health of the SD rats were checked first, and the eligible ones were placed into the clean grade chambers of rats in Shanghai institute of Materia Medica.
I. Analysis Condition of LC/MS/MS
Analysis Condition of Liquid Chromatography
Chromatographic column: Agilent Zorbax SB-C18 column (50 mm×2.1 mm ID);
Column temperature: 25° C.;
Mobile phase: A: H2O—CH3CN (2:98, v/v), B: H2O—CH3CN (10:90, v/v)
A: 25%+B: 75%, constant gradient elution;
Analysis time: 3 minutes.
The light circle was switched to 12/12 hour day/night in the clean grade chambers of rats. Humidity and temperature were 40-60% and 20-24° C., respectively. Every 4 rats were raised in a 36×24×19 cm^3 stainless rat cage. The rats took water freely and were fed special rat food regularly once daily. Only after one week adaption, the rats were used to conduct pharmacokinetics studies. 12 Sprague-Dawley rats were divided into 4 groups, 3 for each group.
The blood samples were collected 0 hour before the administration and 0.083, 0.25, 0.5, 1.0, 2, 4, 6, and 8 hours after the administration. The blood samples were collected at 250˜300 μL at each time point from posterior venous sinus of the eye after respiration anaesthesia with ether (the degree of anaesthesia was highly controlled). The blood was collected into test tubes containing heparin, and then was centrifuged to produce plasma. The obtained plasma was divided into 2 parts (50 μL for each part) and stored at −70° C. until analysis. […] After experiments, euthanasia was performed with CO2 gas.
Pharmacokinetics parameters of animal experiment of each group were calculated using InnaPhase Kinetica™ software (America).

SMILES	Solubility in water (Solubility)	content after 6 Months Under Light [1] [%]	content after 6 Months at 60° C. [1] [%]	content after 6 Months at Room Temperature [1] [%]	AUC0→8 h Mol dose (in vivo) [ng·h/mL]	stability (conclusion of stability experiments) [1]
N#CC1(c2ccc(NC(=O)c3cccnc3NCc3ccncc3)cc2)CCCC1.O=P(O)(O)O [Phosphate of compound A]	Insoluble	97.1	94.2	97.3	9074 ± 6292	–
Cl.N#CC1(c2ccc(NC(=O)c3cccnc3NCc3ccncc3)cc2)CCCC1 [Hydrochloride of compound A]	very slightly	97.6	94.7	98.2	17653 ± 3232	most satisfying
N#CC1(c2ccc(NC(=O)c3cccnc3NCc3ccncc3)cc2)CCCC1.O=C(O)/C=C\C(=O)O [Maleate of compound A]	Insoluble	94.2	93.5	96.4	11697 ± 8807	–

From patent US8362256B2, “Salts of N-[4-(1-cyanocyclopentyl)phenyl]-2-(4-pyridylmethyl)amino-3-pyridinecarboxamide” (Jiangsu Hengrui Medicine Co. Ltd., priority 2008, dated 2013)
